Measured values: US20070255356A1, “PHOTODI[…] DEVICES AND METHODS” (Ondine International, Ltd., priority 2006, published 2007)

Legend:
[1] = system: MRSA; assay: photodisinfection of MRSA biofilms in vitro (Periowave laser); assay type: cell-based, Methicillin-resistant Staphylococcus aureus
From the text: (§1) Photodisinfection treatments using methods contemplated by the present invention have been tested against MRSA, Escherichia coli (E. coli), and Enterococcus fecalis (E. fecalis) in vitro and reached high levels of disinfection in within seconds to one minute. Photosensitizing composition comprising of methylene blue at various concentrations ranging from about 0.005 wt % to 0.1 wt % was applied to biofilms of MRSA, E. coli and E. fecalis for about ten seconds. These biofilms were then illuminated by a laser light system at a wavelength of about 665 nm to about 675 nm for a period from about 0 seconds to about 60 seconds (e.g., accumulated energy level of about 0 J/cm^2 to about 9 J/cm^2). The laser light system used was the Periowave™ system which includes a low-intensity laser with power at about 240 mW and the optical probe described in PCT Patent Publication No. WO2006115761.

[2] = system: E. coli; assay: photodisinfection of E. coli biofilms in vitro (Periowave laser); assay type: cell-based, Escherichia coli
From the text: as §1

[3] = system: E. fecalis; assay: photodisinfection of E. fecalis biofilms in vitro (Periowave laser); assay type: cell-based, Enterococcus fecalis; conditions: methylene blue and a low power laser
From the text: as §1

[4] = system: MRSA; assay: SEM evaluation of MRSA biofilms after photodisinfection; assay type: cell-based, Methicillin-resistant Staphylococcus aureus; conditions: about 0.1 wt % methylene blue, about 10 seconds contact, 665-675 nm, about 30 seconds
Method: (§2) Biofilms heavily colonized with one to four layers of MRSA organisms were contacted with a photosensitizing composition comprising methylene blue at a concentration of about 0.1 wt % for about 10 seconds and then illuminated at a wavelength of about 665 nm to about 675 nm for a period from about 30 seconds using the Periowave™ laser. Thereafter, these biofilms and the controlled MRSA biofilms (e.g., no photodisinfection treatment) were incubated overnight in 0.9 wt % saline and then fixed in 10 wt % Formalin for scanning electron microscope (SEM) evaluation.

[5] = system: E. coli; assay: SEM evaluation of E. coli biofilms after photodisinfection; assay type: cell-based, Escherichia coli; conditions: about 0.1 wt % methylene blue, about 10 seconds contact, 665-675 nm, about 30 seconds
Method: as §2, with “to three” for “to four”, “of Escherichia coli (E. coli)” for “of MRSA”, “controlled E. coli” for “controlled MRSA”, “incubated for three hours” for “incubated overnight”, “in 0.9%” for “in 0.9 wt %”, “in 10%” for “in 10 wt %”

[6] = system: otitis externa; assay: study on patients suffering otitis externa (photodisinfection, Periowave laser); assay type: in vivo, human; conditions: about 0.01 wt % methylene blue by cotton swab, 665-675 nm, about 3 to 5 minutes (3-5 one minute cycles); many patients
Method: A study was conducted on patients suffering otitis externa. During the study, a photosensitizing composition comprising of methylene blue at a concentration of about 0.01 wt % was applied using a cotton swab to the treatment site as shown in FIG. 37. Thereafter and referring to FIGS. 38-39, light at a wavelength range from about 665 nm to about 675 nm was applied to the photosensitizing composition located within the treatment site 64 for a period from about 3 minutes to about 5 minutes (3-5 repetitive one minute cycles) using the Periowave™ laser light system.

[7] = system: otitis externa; assay: photodisinfection of otitis externa treatment site (Examples V to VII); assay type: in vivo
Method: A photosensitizing composition comprising of methylene blue at a concentration of about 0.1 wt % is applied to the otitis externa treatment site. Light at a wavelength range from about 650 nm to about 680 nm is applied to the photosensitizing composition located within the otitis externa treatment site for a period from about 6 minutes to about 10 minutes using a laser with power at about 80 mW. The otitis externa was ameliorated.
A photosensitizing composition comprising of methylene blue at a concentration range of from about 0.001 wt % to about 0.1 wt % is applied to the otitis externa treatment site. Light at a wavelength range from about 650 nm to about 680 nm is applied to the photosensitizing composition located within the treatment site for a period from about 1 minute to about 20 minutes using a laser with power at a range from about 50 mW to about 300 mW. The otitis externa was ameliorated.
A photosensitizing composition comprising of toluidine blue at a concentration range of from about 0.001% wt % to about 0.1 wt % is applied to the otitis externa treatment site. Light at a wavelength range from about 620 nm to about 650 nm is applied to the photosensitizing composition located within the otitis externa treatment site for a period from about 1 minute to about 20 minutes using a laser with power at a range from about 50 mW to about 300 mW. The otitis externa was ameliorated.
For Examples V to VII, it was shown that there is a general inverse relationship between (1) the photosensitizer concentration and (2) the photodisinfection treatment time and/or the amount of power required for the light source. For example, higher concentration of photosensitizer requires less treatment time and/or lower light source power. Conversely, lower concentration of photosensitizer requires longer treatment time and/or higher light source power. Also, less treatment time requires higher concentration of photosensitizer and/or higher light source power.

[8] = at least 0.02 wt % methylene blue, about ten seconds contact, about 665-675 nm laser about 240 mW for at least 15 seconds (at least 2.25 J/cm^2)
[9] = methylene blue and a low power laser

## CN(C)c1ccc2nc3ccc(=[N+](C)C)cc-3sc2c1 [methylene blue]
[1]; [8]
  reduction of MRSA: at least three
[1]; [9]
  elimination of MRSA by photodisinfection: effectively eliminated
[2]; [8]
  reduction of E. coli: at least three
[2]; [9]
  elimination of E. coli by photodisinfection: effectively eliminated
[3]
  elimination of E. Fecalis by photodisinfection: effectively eliminated
[4]
  reduction of MRSA in SEM photograph (FIG. 34 vs FIG. 33): substantial reduction of MRSA
[5]
  reduction of E. coli in SEM photograph (FIG. 36 vs FIG. 35): substantial reduction of E. coli
[6]
  outcome of otitis externa: ameliorated
[7]; Example V: about 0.1 wt %, 650-680 nm, about 6 to 10 minutes, laser about 80 mW
  outcome of otitis externa: ameliorated
[7]; Example VI: about 0.001 to 0.1 wt %, 650-680 nm, about 1 to 20 minutes, laser about 50 to 300 mW
  outcome of otitis externa: ameliorated

## Cc1cc2nc3ccc(N(C)C)cc3[s+]c2cc1N.[Cl-] [toluidine blue]
[7]; Example VII: about 0.001 to 0.1 wt %, 620-650 nm, about 1 to 20 minutes, laser about 50 to 300 mW
  outcome of otitis externa: ameliorated
